Experimental data as given in US10738028B2, “Spiro three-membered ring, spiro five-membered ring peptide deformylase inhibitor and use thereof in antibacteria and anti-tumor” (priority 2016, dated 2020).
Where two headings read alike, the source gives them in different places.

Legend:
Format in all cases: cell-based
[1] = system: Enterococcus faecalis (EFA); test: MIC, two-fold agar dilution (CLSI), clinical isolates
Outline: (§1)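 Susceptibility was tested using CLSI two-fold agar dilution against the strains examined.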

[2] = system: Enterococcus faecium (EFM); test: as above
Outline: as §1

[3] = system: Escherichia coli (including ESBLs, non-ESBLs); test: as above
Outline: as §1

[4] = system: Moraxella catarrhalis (BCA); test: as above; conditions: for MIC: Moraxella catarrhalis
Outline: as §1

[5] = system: Streptococcus pneoumoniae (SPN); test: as above
Outline: as §1

[6] = system: methicillin-resistant Staphylococcus aureus (MRSA); test: as above
Outline: as §1

[7] = system: methicillin-resistant Staphylococcus epidermidis (MRSE); test: as above
Outline: as §1

[8] = system: methicillin-sensitive Staphylococcus aureus (MSSA); test: as above
Outline: as §1

[9] = system: methicillin-sensitive Staphylococcus epidermidis (MSSE); test: as above
Outline: as §1

[10] = system: HCT-116 colorectal cancer cell line; test: CCK-8 proliferation inhibition; conditions: concentration of 30 μM, 72 hours, CCK-8
Outline: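 2000 cells/well, McCoy's 5A + 10% newborn bovine serum; overnight attach, 37° C./5% CO2. Cpd from DMSO stock diluted in medium, 72 h. Readout: CCK-8 (1:10). Ctrl 1‰ DMSO.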

[11] = system: A549 lung cancer cell line; test: CCK-8 proliferation inhibition; conditions: Homo sapiens, A549, 72 h, concentration of 30 μM
Source text: (§2) 2. The present invention adopts the CCK-8 method to determine the proliferation inhibition effect of the spiro three-membered ring, spiro five-membered ring peptide deformylase inhibitor as described in Examples 1-80 against colorectal cancer cells, lung cancer cells, gastric cancer cells, liver cancer cells, and the like. […] The compound having the best activity synthesized in Example 64 was further tested for its inhibitory activity against other tumor cells including T cell leukemia, acute myeloid leukemia, cervical cancer, breast cancer, prostate cancer and osteosarcoma, and the like (see Table 7).
(§3) (1) HCT-116 colorectal cancer cell line, A549 lung cancer cell line, MGC-803 gastric cancer cell line, BEL-7402 liver cancer cell line, Jurkat T cell leukemia cell line, HL60 acute myeloid leukemia cell line, Hela cervical cancer cell line, MCF-7 breast cancer cell line, PC3 prostate cancer cell line and SAOS-2 osteosarcoma cell line were made into single cell suspension, 180 μL of which was inoculated into 96-well culture plate, which was cultured overnight in CO2 incubator (37° C., 5% CO2, 95% air).
(§4) (2) Each of the spiro three-membered ring, spiro five membered ring peptide deformylase inhibitors was dissolved in DMSO, and was further formulated into drug solution with required different final concentration using corresponding cell culture medium. The drug solutions were added to the above cells respectively (20 μL/well), with the control group added with 1‰ DMSO, and cultured in a CO2 incubator for 72 hours.
(§5) (3) After incubation for 72 hours, the culture solution was decanted, and 100 μL of 1:10 diluted CCK-8 solution was added.
(§6) Wherein, in step (1), the concentration of the single cell suspension was 2000 cells/well.
(§7) Wherein, in step (2), HCT-116 cells were cultured in McCoy's 5A medium (containing 10% newborn bovine serum, 1% double antibody); A549 and PC3 cells were cultured in F12 medium (containing 10% newborn bovine serum, 1% double antibody); MGC-803, BEL-7402, SAOS-2, Jurkat and HL60 cells were cultured in 1640 medium (containing 10% newborn bovine serum, 1% double antibody); and MCF-7 and Hela cells were cultured in DMEM high glucose medium (containing 10% newborn bovine serum, 1% double antibody).

[12] = system: BEL-7402 liver cancer cell line; test: CCK-8 proliferation inhibition; conditions: concentration of 30 μM
Source text: as §2, §3, §4, §5, §6, §7

[13] = system: MGC-803 gastric cancer cell line; test: CCK-8 proliferation inhibition; conditions: Homo sapiens, MGC-803, 72 h, concentration of 30 μM
Source text: as §2, §3, §4, §5, §6, §7

CCCC[C@H](CN(O)C=O)C(=O)N1CC2(CC2)C[C@H]1C(=O)Nc1nccs1 [Example 22]
≥ 0.06 µg/mL: MIC ([4]; lowest MIC reached, read-out: minimum inhibitory concentration against Moraxella catarrhalis, as low as)
> 50%: inhibition at 30 µM ([10]; Homo sapiens, HCT-116, 72 h, read-out: HCT116 inhibition rate/%) | inhibition at 30 µM ([12]; Homo sapiens, Bel-7402, 72 h)
32 µg/mL: MIC (anti-bacterial activity) ([3]; strain ECO+ 15-3) | MIC (anti-bacterial activity) ([3]; strain ECO+ 15-4) | MIC (anti-bacterial activity) ([3]; strain ECO− 15-1)
16 µg/mL: MIC (anti-bacterial activity) ([3]; strain ECO+ 15-1)
0.125 µg/mL: MIC (anti-bacterial activity) ([4]; strain BCA 14-7) | MIC (anti-bacterial activity) ([4]; strain BCA 14-10) | MIC (anti-bacterial activity) ([7]; strain MRSE 15-3) | MIC (anti-bacterial activity) ([7]; strain MRSE 15-7)
14%: inhibition at 30 µM [13]
0.5 µg/mL: MIC (anti-bacterial activity) ([2]; strain EFM 15-1) | MIC (anti-bacterial activity) ([2]; strain EFM 15-4) | MIC (anti-bacterial activity) ([2]; strain EFM 15-6) | MIC (anti-bacterial activity) ([4]; strain BCA 14-1) | MIC (anti-bacterial activity) ([4]; strain BCA 14-8) | MIC (anti-bacterial activity) ([5]; strain SPN 16-4)
0.25 µg/mL: MIC (anti-bacterial activity) ([2]; strain EFM 15-3) | MIC (anti-bacterial activity) ([2]; strain EFM 15-5) | MIC (anti-bacterial activity) ([4]; strain BCA 14-4) | MIC (anti-bacterial activity) ([6]; strain MRSA 15-2) | MIC (anti-bacterial activity) ([6]; strain MRSA 15-4)
21%: inhibition at 30 µM [11]
64 µg/mL: MIC (anti-bacterial activity) ([3]; strain ECO+ 15-2) | MIC (anti-bacterial activity) ([3]; strain ECO− 15-2) | MIC (anti-bacterial activity) ([3]; strain ECO− 15-3) | MIC (anti-bacterial activity) ([3]; strain ECO− 15-4)
0.06 to 0.5 µg/mL: MIC ([4]; 7 clinical isolates, range over strains, read-out: Moraxella catarrhalis (n = 7) MIC)
52%: HCT116 inhibition rate/% ([10]; 30 µM)
0.06 µg/mL: MIC (anti-bacterial activity) ([4]; strain BCA 14-5) | MIC (anti-bacterial activity) ([4]; strain BCA 14-6) | MIC (anti-bacterial activity) ([6]; strain MRSA 15-1) | MIC (anti-bacterial activity) ([6]; strain MRSA 15-3) | MIC (anti-bacterial activity) ([7]; strain MRSE 15-2) | MIC (anti-bacterial activity) ([8]; strain MSSA 15-3) | MIC (anti-bacterial activity) ([8]; strain MSSA 15-4) | MIC (anti-bacterial activity) ([8]; strain MSSA 15-6) | MIC (anti-bacterial activity) ([9]; strain MSSE 15-3)
1 µg/mL: MIC (anti-bacterial activity) ([1]; strain EFA 15-3)
0.03 µg/mL: MIC (anti-bacterial activity) ([7]; strain MRSE 15-1) | MIC (anti-bacterial activity) ([8]; strain MSSA 15-5) | MIC (anti-bacterial activity) ([9]; strain MSSE 15-4) | MIC (anti-bacterial activity) ([9]; strain MSSE 15-5) | MIC (anti-bacterial activity) ([9]; strain MSSE 15-6)
51%: Inhibition of proliferation, Liver cancer BEL-7402 ([12]; 72 hours, 30 µM)
2 µg/mL: MIC (anti-bacterial activity) ([1]; strain EFA 15-1) | MIC (anti-bacterial activity) ([1]; strain EFA 15-2) | MIC (anti-bacterial activity) ([1]; strain EFA 15-4) | MIC (anti-bacterial activity) ([1]; strain EFA 15-5) | MIC (anti-bacterial activity) ([1]; strain EFA 15-6) | MIC (anti-bacterial activity) ([1]; strain EFA 15-9) | MIC (anti-bacterial activity) ([2]; strain EFM 15-2) | MIC (anti-bacterial activity) ([5]; strain SPN 16-2)
